Test results: patent publication US20230338348A1, “RENIN-ANGIOTENSIN SYSTEM (RAS) MODULATORS FOR TREATMENT OF VIRAL INFECTIONS, PHARMACEUTICAL COMPOSITIONS INCLUDING THE SAME, AND METHODS OF TREATING USING THE SAME” (Trocar Pharma Inc., priority 2020, published 2023)

How the values were obtained:
[1] = test system: Preglomerular vascular smooth muscle cells; assay: O2- generation in Ang II-stimulated preglomerular vascular smooth muscle cells; format: cell-based; details: cells stimulated by 10^−6 M Ang II
Source text: Preglomerular vascular smooth muscle cells were stimulated by 10^−6 M Ang II to produce O2^−.

[2] = target: T1, AT2, angiotensin II (Homo sapiens, UniProt P50052); assay: Angiotensin II AT2 receptor inhibition; format: binding; details: at 1.0 × 10^−9M drug, N = 2
T1 sequence (P50052 1-363): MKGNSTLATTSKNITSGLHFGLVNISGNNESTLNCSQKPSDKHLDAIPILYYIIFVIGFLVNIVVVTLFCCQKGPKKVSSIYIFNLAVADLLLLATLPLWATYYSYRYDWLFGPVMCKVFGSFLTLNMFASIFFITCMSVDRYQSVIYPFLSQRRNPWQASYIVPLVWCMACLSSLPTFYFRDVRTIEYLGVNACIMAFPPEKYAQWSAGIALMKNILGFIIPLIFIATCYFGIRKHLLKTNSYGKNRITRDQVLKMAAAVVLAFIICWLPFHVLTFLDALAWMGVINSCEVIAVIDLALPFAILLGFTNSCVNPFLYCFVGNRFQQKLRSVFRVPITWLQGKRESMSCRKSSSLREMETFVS

[3] = target: T2, Human AT1 (Homo sapiens, UniProt P30556); assay: Angiotensin II AT1 receptor inhibition; format: binding; details: Human AT1, at 1.0 × 10^−8M drug, N = 2
T2 sequence (P30556 1-359): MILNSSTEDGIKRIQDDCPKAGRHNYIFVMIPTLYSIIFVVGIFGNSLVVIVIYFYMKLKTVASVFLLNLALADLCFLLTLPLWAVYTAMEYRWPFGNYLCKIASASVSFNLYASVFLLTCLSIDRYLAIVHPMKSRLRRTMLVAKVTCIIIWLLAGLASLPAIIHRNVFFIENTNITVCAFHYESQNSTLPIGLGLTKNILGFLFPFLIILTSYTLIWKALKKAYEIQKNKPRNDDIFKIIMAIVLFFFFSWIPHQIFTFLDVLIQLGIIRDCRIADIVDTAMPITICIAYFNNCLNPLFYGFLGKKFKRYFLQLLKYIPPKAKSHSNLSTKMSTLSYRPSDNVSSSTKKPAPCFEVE

[4] = in vivo; cited from earlier work

For `CCCc1nc2c(C)cc(-c3nc4ccccc4n3C)cc2n1Cc1ccc(-c2ccccc2C(=O)O)cc1` [Telmisartan], the “inhibition of O2− generation (antioxidant action)” value [1] was “do not have antioxidant actions”, the inhibition at 0.001 µM [2] was 6.37% and the inhibition at 0.01 µM [3] was 52.7%. For the same molecule, the half-life [4] was 24 h.
